Laboratory results as given in ChEMBL document CHEMBL1221210, “A Cdc7 kinase inhibitor restricts initiation of DNA replication and has antitumor activity” (Nat Chem Biol, 2008).

Columns and labels:
U2OS = experiment: Antiproliferative activity against human U2OS cells expressing p53 gene after 72 hrs by proliferative assay; assay type: functional, cell-based
HeLa [1] = experiment: Inhibition of DNA replication in human HeLa cells assessed as interorigin distance between homogenous DNA fibers at 2 uM after 2 hrs by immunofluorescence assay; assay type: functional
PC-3 [2] = experiment: Antiproliferative activity against human PC3 cells expressing p53 gene after 72 hrs by proliferative assay; assay type: functional, cell-based; conditions: PC-3, 72 h
NHDF [3] = experiment: Induction of cell cycle arrest in NHDF expressing p53 gene assessed as accumulation at subG1 phase at 0.1 uM after 24hrs by FACS analysis; assay type: cell-based; conditions: human
SW480 [4] = experiment: Induction of cell cycle arrest in p53 deficient human SW480 cells assessed as residual DNA synthesis at 10 uM after 24 hrs by FACS analysis; assay type: functional
HeLa [5] = experiment: Induction of cell cycle arrest in p53 deficient human HeLa cells assessed as accumulation at subG1 phase at 10 uM after 24hrs by FACS analysis; assay type: functional
[6] = molecular target: Tyrosine-protein kinase ZAP-70 (Homo sapiens, UniProt P43403); experiment: Inhibition of ZAP70
Chain of Tyrosine-protein kinase ZAP-70 (P43403 whole entry): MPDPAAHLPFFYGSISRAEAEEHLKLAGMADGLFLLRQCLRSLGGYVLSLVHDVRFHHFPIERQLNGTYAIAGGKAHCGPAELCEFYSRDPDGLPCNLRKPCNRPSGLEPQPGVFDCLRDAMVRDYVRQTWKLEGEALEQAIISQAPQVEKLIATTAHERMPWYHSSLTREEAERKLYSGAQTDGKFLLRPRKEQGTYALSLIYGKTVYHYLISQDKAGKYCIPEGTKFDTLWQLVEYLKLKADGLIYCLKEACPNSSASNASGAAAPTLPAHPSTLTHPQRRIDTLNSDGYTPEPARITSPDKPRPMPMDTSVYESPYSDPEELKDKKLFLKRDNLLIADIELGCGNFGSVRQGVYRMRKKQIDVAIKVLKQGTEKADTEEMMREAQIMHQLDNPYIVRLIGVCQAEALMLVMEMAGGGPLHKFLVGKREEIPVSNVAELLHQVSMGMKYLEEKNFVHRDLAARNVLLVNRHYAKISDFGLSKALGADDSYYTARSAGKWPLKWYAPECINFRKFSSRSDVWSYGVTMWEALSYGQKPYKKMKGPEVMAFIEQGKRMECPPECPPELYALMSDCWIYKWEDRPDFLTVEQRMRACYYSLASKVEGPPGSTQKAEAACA

HeLa [7] = experiment: Inhibition of DNA replication in human HeLa cells assessed as increase in replication fork speed per min at 5 uM after 6 hrs by immunofluorescence assay; assay type: functional
HeLa [8] = experiment: Inhibition of DNA replication in human HeLa cells assessed as interorigin distance between homogenous DNA fibers at 20 uM after 6 hrs by immunofluorescence assay; assay type: functional
K562 [9] = experiment: Induction of cell cycle arrest in p53 deficient human K562 cells assessed as accumulation at subG1 phase at 5 uM after 24hrs by FACS analysis; assay type: functional
PC-3 [10] = experiment: Induction of cell cycle arrest in human PC3 cells expressing p53 gene assessed as accumulation at subG1 phase at 10 uM after 24 hrs by FACS analysis; assay type: functional
Mus musculus = experiment: AUC in SCID mouse carrying human HL60 cells at 20 mg/kg, iv after 10 hrs; assay type: ADME, organism-based, HL-60; set-up: time < 10 hr, dose 20 mg/kg, route intravenous; conditions: in vivo
SF-539 [11] = experiment: Induction of cell cycle arrest in human SF539 cells expressing p53 gene assessed as accumulation at subG1 phase at 5 uM after 24hrs by FACS analysis; assay type: functional
HCT-15 [12] = experiment: Induction of cell cycle arrest in human HCT15 cells expressing p53 gene assessed as residual DNA synthesis at 5 uM after 24 hrs by FACS analysis; assay type: functional
SF-539 [13] = experiment: Induction of cell cycle arrest in human SF539 cells expressing p53 gene assessed as accumulation at subG1 phase at 10 uM after 24 hrs by FACS analysis; assay type: functional
COLO 205 [14] = experiment: Induction of cell cycle arrest in p53 deficient human COLO205 cells assessed as accumulation at subG1 phase at 5 uM after 24hrs by FACS analysis; assay type: functional
COLO 205 [15] = experiment: Induction of cell cycle arrest in p53 deficient human COLO205 cells assessed as accumulation at subG1 phase at 10 uM after 24hrs by FACS analysis; assay type: functional
SF-268 = experiment: Antiproliferative activity against p53 deficient human SF268 cells after 72 hrs; assay type: functional, cell-based; conditions: SF-268, 72 h
PC-3 [16] = experiment: Induction of cell cycle arrest in human PC3 cells expressing p53 gene assessed as residual DNA synthesis at 10 uM after 24 hrs by FACS analysis; assay type: functional
[17] = Clearance in rat carrying DMBA-induced mammary carcinoma at 10 mg/kg, iv after 10 hrs; assay type: ADME, organism-based; set-up: dose 10 mg/kg, route intravenous; conditions: in vivo
[18] = molecular target: Inhibitor of nuclear factor kappa-B kinase subunit beta (Homo sapiens, UniProt O14920); experiment: Inhibition of IKK2
Chain of Inhibitor of nuclear factor kappa-B kinase subunit beta (O14920 whole entry): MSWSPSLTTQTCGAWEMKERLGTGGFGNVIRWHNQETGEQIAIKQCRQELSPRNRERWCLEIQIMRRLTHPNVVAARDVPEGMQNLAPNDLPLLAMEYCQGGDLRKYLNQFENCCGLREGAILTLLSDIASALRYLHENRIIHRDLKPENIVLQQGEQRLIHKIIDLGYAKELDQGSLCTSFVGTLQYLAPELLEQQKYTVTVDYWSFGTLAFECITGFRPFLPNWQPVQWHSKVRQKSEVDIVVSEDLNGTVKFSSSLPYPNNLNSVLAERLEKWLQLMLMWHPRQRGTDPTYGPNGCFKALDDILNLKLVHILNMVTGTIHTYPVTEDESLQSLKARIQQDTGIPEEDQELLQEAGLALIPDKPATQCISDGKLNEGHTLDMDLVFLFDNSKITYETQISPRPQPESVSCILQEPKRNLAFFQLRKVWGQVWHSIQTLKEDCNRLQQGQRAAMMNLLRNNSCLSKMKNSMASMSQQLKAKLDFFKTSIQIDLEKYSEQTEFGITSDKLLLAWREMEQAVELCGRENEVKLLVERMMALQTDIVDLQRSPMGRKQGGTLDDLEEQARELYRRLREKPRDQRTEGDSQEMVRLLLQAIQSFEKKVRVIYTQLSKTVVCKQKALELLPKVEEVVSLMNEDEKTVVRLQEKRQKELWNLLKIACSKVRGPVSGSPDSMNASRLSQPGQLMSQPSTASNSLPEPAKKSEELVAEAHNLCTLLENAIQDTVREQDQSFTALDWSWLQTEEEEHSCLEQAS

MCF7 [19] = experiment: Induction of cell cycle arrest in human MCF7 cells expressing p53 gene assessed as accumulation at subG1 phase at 5 uM after 24hrs by FACS analysis; assay type: functional
COLO 205 [20] = experiment: Induction of cell cycle arrest in p53 deficient human COLO205 cells assessed as residual DNA synthesis at 10 uM after 24 hrs by FACS analysis; assay type: functional
MCF7 [21] = experiment: Induction of cell cycle arrest in human MCF7 cells expressing p53 gene assessed as accumulation at subG1 phase at 10 uM after 24hrs by FACS analysis; assay type: functional
HeLa [22] = experiment: Inhibition of DNA replication in human HeLa cells assessed as increase in replication fork speed per min at 20 uM after 6 hrs by immunofluorescence assay; assay type: functional
SF-539 [23] = experiment: Induction of cell cycle arrest in human SF539 cells expressing p53 gene assessed as residual DNA synthesis at 10 uM after 24 hrs by FACS analysis; assay type: functional
HeLa [24] = experiment: Induction of cell cycle arrest in p53 deficient human HeLa cells assessed as assessed as accumulation at subG1 phase at 5 uM after 24hrs by FACS analysis; assay type: functional
[25] = Inhibition of Ck2
K562 [26] = experiment: Induction of cell cycle arrest in p53 deficient human K562 cells assessed as residual DNA synthesis at 5 uM after 24hrs by FACS analysis; assay type: functional
K562 [27] = experiment: Induction of cell cycle arrest in p53 deficient human K562 cells assessed as residual DNA synthesis at 10 uM after 24 hrs by FACS analysis; assay type: functional
OVCAR-8 [28] = experiment: Induction of cell cycle arrest in p53 deficient human OVCAR8 cells assessed as residual DNA synthesis at 5 uM after 24hrs by FACS analysis; assay type: functional
NHDF [29] = experiment: Induction of cell cycle arrest in thymidine deficient NHDF assessed as DNA synthesis in S-phase at 5 uM after 16hrs FACS analysis in presence of serum; assay type: cell-based; conditions: human
HeLa [30] = experiment: Inhibition of DNA replication in human HeLa cells assessed as increase in replication fork speed per min at 5 uM after 2 hrs by immunofluorescence assay; assay type: functional
HCT-116 [31] = experiment: Antiproliferative activity against human HCT116 cells expressing p53 gene after 72 hrs by proliferative assay; assay type: functional, cell-based; conditions: HCT-116, 72 h
HCT-116 [32] = experiment: Induction of cell cycle arrest in human HCT116 cells expressing p53 gene assessed as accumulation at subG1 phase at 5 uM after 24hrs by FACS analysis; assay type: functional
[33] = Clearance in SCID mouse carrying human HL60 cells at 20 mg/kg or 30 mg/kg, iv after 10 hrs; assay type: ADME, organism-based, HL-60; conditions: in vivo
SW480 [34] = experiment: Antiproliferative activity against p53 deficient human SW480 cells after 72 hrs by proliferative assay; assay type: functional, cell-based; conditions: SW480, 72 h
OVCAR-8 [35] = experiment: Antiproliferative activity against p53 deficient human OVCAR8 cells after 72 hrs by proliferative assay; assay type: functional, cell-based; conditions: OVCAR-8, 72 h
HCT-15 [36] = experiment: Antiproliferative activity against human HCT15 cells expressing p53 gene after 72 hrs by proliferative assay; assay type: functional, cell-based; conditions: HCT-15, 72 h
HeLa [37] = experiment: Inhibition of DNA replication in human HeLa cells assessed as increase in replication fork speed per min at 2 uM after 6 hrs by immunofluorescence assay; assay type: functional
[38] = molecular target: Serine/threonine-protein kinase Nek6 (Homo sapiens, UniProt Q9HC98); experiment: Inhibition of Nek6
Chain of Serine/threonine-protein kinase Nek6 (Q9HC98 whole entry): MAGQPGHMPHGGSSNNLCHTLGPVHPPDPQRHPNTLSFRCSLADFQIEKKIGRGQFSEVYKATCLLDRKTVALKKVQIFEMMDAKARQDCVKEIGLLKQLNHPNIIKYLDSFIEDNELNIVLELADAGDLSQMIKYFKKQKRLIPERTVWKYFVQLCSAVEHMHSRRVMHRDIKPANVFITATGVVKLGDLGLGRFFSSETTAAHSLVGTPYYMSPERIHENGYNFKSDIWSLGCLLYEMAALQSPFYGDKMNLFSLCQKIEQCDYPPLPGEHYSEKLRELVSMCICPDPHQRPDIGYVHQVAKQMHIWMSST

HeLa [39] = experiment: Inhibition of DNA replication in human HeLa cells assessed as interorigin distance between homogenous DNA fibers at 5 uM after 2 hrs by immunofluorescence assay; assay type: functional
[40] = Antiproliferative activity against human NCI60 cells

Which results are given for `O=C1NCCc2[nH]c(-c3ccncc3)cc21`?
IC50 (U2OS): 1.49 µM; Activity (HeLa [1]): 225 kilobase; IC50 (PC-3 [2]): 4.59 µM; Activity (NHDF [3]): Active; Activity (SW480 [4]): <3%; Activity (HeLa [5]): 10%; IC50 [6]: > 10 µM; Activity (HeLa [7]): 2.14 kilobase; Activity (HeLa [8]): 287 kilobase; Activity (K562 [9]): <3%; Activity (PC-3 [10]): 3%; AUC (Mus musculus): 47 µM·h; Activity (SF-539 [11]): 3%; Activity (HCT-15 [12]): <3%; Activity (SF-539 [13]): 3%; Activity (COLO 205 [14]): 10%; Activity (COLO 205 [15]): >20%; IC50 (SF-268): 0.86 µM; Activity (PC-3 [16]): <3%; clearance [17]: 1.8 L/h/kg; IC50 [18]: > 10 µM; Activity (MCF7 [19]): 3%; Activity (COLO 205 [20]): 3%; Activity (MCF7 [21]): <3%; Activity (HeLa [22]): 2.28 kilobase; Activity (SF-539 [23]): <3%; Activity (HeLa [24]): 10%; IC50 [25]: > 10 µM; Activity (K562 [26]): 10%; Activity (K562 [27]): 10%; Activity (OVCAR-8 [28]): <3%; Activity (NHDF [29]): Active; Activity (HeLa [30]): 1.86 kilobase; IC50 (HCT-116 [31]): 0.97 µM; Activity (HCT-116 [32]): 3%; clearance [33]: 1.8 L/h/kg; IC50 (SW480 [34]): 2.67 µM; IC50 (OVCAR-8 [35]): 1.56 µM; IC50 (HCT-15 [36]): 3.81 µM; Activity (HeLa [37]): 1.81 kilobase; IC50 [38]: > 10 µM; Activity (HeLa [39]): 210 kilobase; IC50 [40]: 3.1 µM
